Measured values from patent publication US12559492B2, “BRAF degraders” (C4 Therapeutics, Inc., priority 2020, dated 2026).
Counter-ions that a name gives are not always drawn.

Target: BRAF^V600E protein (Homo sapiens, UniProt P15056, V600E)
Experiment: HiBiT cellular BRAF V600E degradation assay
Type: cell-based
Settings: 24 h incubation; for DC50: A375.10 cells (HiBiT tag knocked in at N-terminal of BRAF V600E), concentration at which 50% of total cellular BRAF V600E is degraded; for Emax: A375.10 cells, Emax = amount of residual protein remaining in the cell after compound treatment, read-out: HiBit 24 h Emax

Chain of BRAF^V600E protein (P15056 whole entry V600E): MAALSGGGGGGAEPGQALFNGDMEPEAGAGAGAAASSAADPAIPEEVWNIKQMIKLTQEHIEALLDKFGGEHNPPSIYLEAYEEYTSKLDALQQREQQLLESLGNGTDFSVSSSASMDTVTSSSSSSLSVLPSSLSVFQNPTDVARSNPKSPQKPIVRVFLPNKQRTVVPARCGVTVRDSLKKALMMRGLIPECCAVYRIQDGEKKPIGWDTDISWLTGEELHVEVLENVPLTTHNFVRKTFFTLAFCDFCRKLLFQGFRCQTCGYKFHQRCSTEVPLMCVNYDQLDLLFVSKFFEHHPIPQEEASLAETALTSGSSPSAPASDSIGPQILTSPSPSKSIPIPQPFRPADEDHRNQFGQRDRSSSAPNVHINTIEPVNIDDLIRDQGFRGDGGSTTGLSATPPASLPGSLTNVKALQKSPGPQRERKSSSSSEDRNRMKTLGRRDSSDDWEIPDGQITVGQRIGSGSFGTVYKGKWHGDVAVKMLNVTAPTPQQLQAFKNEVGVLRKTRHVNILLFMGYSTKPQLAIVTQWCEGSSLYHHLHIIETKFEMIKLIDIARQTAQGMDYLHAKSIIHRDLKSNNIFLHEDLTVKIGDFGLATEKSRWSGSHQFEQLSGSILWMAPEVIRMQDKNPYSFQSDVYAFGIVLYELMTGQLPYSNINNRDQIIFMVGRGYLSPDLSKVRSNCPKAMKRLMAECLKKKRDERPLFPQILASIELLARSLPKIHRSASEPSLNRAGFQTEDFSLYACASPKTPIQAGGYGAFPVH

What does the source list for `CCN(C)S(=O)(=O)Nc1ccc(F)c(C(=O)c2c[nH]c3ncc(-c4cnc(N5CCC(NCC(=O)N6CCC(c7ccc(NC8CCC(=O)NC8=O)cc7)CC6)CC5)nc4)cc23)c1F` (stereo not shown) [Example A100, 5-[2-[4-[[2-[4-[4-[(2,6-Dioxopiperidin-3-yl)amino]phenyl]piperidin-1-yl]-2-oxoethyl]amino]piperidin-1-yl]pyrimidin-5-yl]-3-[3-[[ethyl(methyl)sulfamoyl]amino]-2,6-difluorobenzoyl]-1H-pyrrolo[2,3-b]pyridine;hydrochloride]?
DC50: 10 nM; Emax: 11%

With `CCN(C)S(=O)(=O)Nc1ccc(F)c(C(=O)c2c[nH]c3ncc(-c4ccc(N5CCC(N(C)CC(=O)N6CCC(c7ccc(NC8CCC(=O)NC8=O)cn7)CC6)CC5)nc4)cc23)c1F` (stereo not shown) [Example A101, 5-[6-[4-[[2-[4-[5-[(2,6-Dioxopiperidin-3-yl)amino]pyridin-2-yl]piperidin-1-yl]-2-oxoethyl]-methylamino]piperidin-1-yl]pyridin-3-yl]-3-[3-[[ethyl(methyl)sulfamoyl]amino]-2,6-difluorobenzoyl]-1H-pyrrolo[2,3-b]pyridine; hydrochloride] as the compound, how does the DC50 read?
Its DC50 is 20 nM.

And the Emax?
Its Emax is 19%.

Which DC50 does the source give for `CCN(C)S(=O)(=O)Nc1ccc(F)c(C(=O)c2c[nH]c3ncc(-c4cnc(N5CCC(NCC(=O)N6CCC(c7ccc(OC8CCC(=O)NC8=O)cc7)CC6)CC5)nc4)cc23)c1F` (stereo not shown) [Example A102, 5-[2-[4-[[2-[4-[4-(2,6-Dioxopiperidin-3-yl)oxyphenyl]piperidin-1-yl]-2-oxoethyl]amino]piperidin-1-yl]pyrimidin-5-yl]-3-[3-[[ethyl(methyl)sulfamoyl]amino]-2,6-difluorobenzoyl]-1H-pyrrolo[2,3-b]pyridine;formic acid] here?
The DC50 was 33 nM.

And the Emax?
The Emax was 12%.

What does the source list for `CCN(C)S(=O)(=O)Nc1ccc(F)c(C(=O)c2c[nH]c3ncc(-c4ccc(N5CCN(C(=O)CN6CCC(c7ccc(N8CCC(=O)NC8=O)cc7)CC6)CC5)nc4)cc23)c1F` [Example A104, 5-[6-[4-[2-[4-[4-(2,4-Dioxo-1,3-diazinan-1-yl)phenyl]piperidin-1-yl]acetyl]piperazin-1-yl]pyridin-3-yl]-3-[3-[[ethyl(methyl)sulfamoyl]amino]-2,6-difluorobenzoyl]-1H-pyrrolo[2,3-b]pyridine]?
DC50: 10 nM; Emax: 7%

Which DC50 does the source give for `O=C1CCC(Nc2ccc(CC(=O)N[C@H]3C[C@H](OC4CCN(c5ccc(-c6cnc7[nH]cc(C(=O)c8c(F)ccc(NS(=O)(=O)N9CCCC9)c8F)c7c6)cn5)CC4)C3)cc2)C(=O)N1` (stereo partly shown) [Example A105, N-[3-[1-[5-[3-[2,6-Difluoro-3-(pyrrolidin-1-ylsulfonylamino)benzoyl]-1H-pyrrolo[2,3-b]pyridin-5-yl]pyridin-2-yl]piperidin-4-yl]oxycyclobutyl]-2-[4-[(2,6-dioxopiperidin-3-yl)amino]phenyl]acetamide] here?
The DC50 was 24 nM.

What about the Emax of the same compound?
Its Emax is 30%.

What does the source list for `CC(C)S(=O)(=O)Nc1ccc(F)c(C(=O)c2c[nH]c3ncc(-c4ccc(N5CCN(C(=O)C6CC(N7CCC(c8ccc(NC9CCC(=O)NC9=O)cc8)CC7)C6)CC5)nc4)cc23)c1F` (stereo not shown) [Example A107, N-[3-[5-[6-[4-[3-[4-[4-[(2,6-Dioxopiperidin-3-yl)amino]phenyl]piperidin-1-yl]cyclobutanecarbonyl]piperazin-1-yl]pyridin-3-yl]-1H-pyrrolo[2,3-b]pyridine-3-carbonyl]-2,4-difluorophenyl]propane-2-sulfonamide]?
DC50: 12 nM; Emax: 12%

What does the source list for `CC(C)S(=O)(=O)Nc1ccc(F)c(C(=O)c2c[nH]c3ncc(-c4ccc(N5CCN(C(=O)CN6CCC(c7ccc(N8CCC(=O)NC8=O)cc7)CC6)CC5)nc4)cc23)c1F` [Example A108, N-[3-[5-[6-[4-[2-[4-[4-(2,4-Dioxo-1,3-diazinan-1-yl)phenyl]piperidin-1-yl]acetyl]piperazin-1-yl]pyridin-3-yl]-1H-pyrrolo[2,3-b]pyridine-3-carbonyl]-2,4-difluorophenyl]propane-2-sulfonamide]?
DC50: 14 nM; Emax: 8%

What does the source list for `CCN(C)S(=O)(=O)Nc1ccc(F)c(C(=O)c2c[nH]c3ncc(-c4ccc(N5CCC(NCC(=O)N6CCC(c7ccc(OC8CCC(=O)NC8=O)cc7)CC6)CC5)nc4)cc23)c1F` (stereo not shown) [Example A109, 5-[6-[4-[[2-[4-[4-(2,6-Dioxopiperidin-3-yl)oxyphenyl]piperidin-1-yl]-2-oxoethyl]amino]piperidin-1-yl]pyridin-3-yl]-3-[3-[[ethyl(methyl)sulfamoyl]amino]-2,6-difluorobenzoyl]-1H-pyrrolo[2,3-b]pyridine; formic acid]?
DC50: 44 nM; Emax: 13%

What does the source list for `CCN(C)S(=O)(=O)Nc1ccc(F)c(C(=O)c2c[nH]c3ncc(-c4ccc(N5CCC(NCC(=O)N6CCC(c7ccc(NC8CCC(=O)NC8=O)cc7)CC6)CC5)nc4)cc23)c1F` (stereo not shown) [Example A110, 5-[6-[4-[[2-[4-[4-[(2,6-Dioxopiperidin-3-yl)amino]phenyl]piperidin-1-yl]-2-oxoethyl]amino]piperidin-1-yl]pyridin-3-yl]-3-[3-[[ethyl(methyl)sulfamoyl]amino]-2,6-difluorobenzoyl]-1H-pyrrolo[2,3-b]pyridine;formic acid]?
DC50: 13 nM; Emax: 13%

For `CCN(C)S(=O)(=O)Nc1ccc(F)c(C(=O)c2c[nH]c3ncc(-c4cnc(N5CCC(CC(=O)N6CCC(c7ccc(NC8CCC(=O)NC8=O)cc7)CC6)CC5)nc4)cc23)c1F` (stereo not shown) [Example A112, 5-[2-[4-[2-[4-[4-[(2,6-Dioxopiperidin-3-yl)amino]phenyl]piperidin-1-yl]-2-oxoethyl]piperidin-1-yl]pyrimidin-5-yl]-3-[3-[[ethyl(methyl)sulfamoyl]amino]-2,6-difluorobenzoyl]-1H-pyrrolo[2,3-b]pyridine], which DC50 is on record?
Its DC50 is 15 nM.

What about the Emax of the same compound?
Its Emax is 15%.

For `CCN(C)S(=O)(=O)Nc1ccc(F)c(C(=O)c2c[nH]c3ncc(-c4cnc(N5CCC(CC(=O)N6CCC(c7ccc(N8CCC(=O)NC8=O)cc7)CC6)CC5)nc4)cc23)c1F` [Example A113, 5-[2-[4-[2-[4-[4-(2,4-Dioxo-1,3-diazinan-1-yl)phenyl]piperidin-1-yl]-2-oxoethyl]piperidin-1-yl]pyrimidin-5-yl]-3-[3-[[ethyl(methyl)sulfamoyl]amino]-2,6-difluorobenzoyl]-1H-pyrrolo[2,3-b]pyridine], which DC50 is on record?
The DC50 was 53 nM.

And the Emax?
The Emax was 33%.

`CCN(C)S(=O)(=O)Nc1cccc(C(=O)c2c[nH]c3ncc(-c4ccc(N5CCN(C(=O)CN6CCC(c7ccc(NC8CCC(=O)NC8=O)cc7)CC6)CC5)nc4)cc23)c1Br` (stereo not shown) [Example A114, 3-[2-Bromo-3-[[ethyl(methyl)sulfamoyl]amino]benzoyl]-5-[6-[4-[2-[4-[4-[(2,6-dioxopiperidin-3-yl)amino]phenyl]piperidin-1-yl]acetyl]piperazin-1-yl]pyridin-3-yl]-1H-pyrrolo[2,3-b]pyridine] was tested. Which DC50 did it give?
The DC50 was 8.83 nM.

And the Emax?
The Emax was 7.68%.

`O=C1CCC(Oc2ccc(C3CCN(CC(=O)N4CC5(C4)CN(c4ccc(-c6cnc7[nH]cc(C(=O)c8c(F)ccc(NS(=O)(=O)N9CC[C@@H](F)C9)c8F)c7c6)cn4)C5)CC3)cc2)C(=O)N1` (stereo partly drawn) [Example A115, (3R)—N-[3-[5-[6-[2-[2-[4-[4-(2,6-dioxopiperidin-3-yl)oxyphenyl]piperidin-1-yl]acetyl]-2,6-diazaspiro[3.3]heptan-6-yl]pyridin-3-yl]-1H-pyrrolo[2,3-b]pyridine-3-carbonyl]-2,4-difluorophenyl]-3-fluoropyrrolidine-1-sulfonamide] was tested. Which DC50 did it give?
Its DC50 is 204 nM.

What about the Emax of the same compound?
Its Emax is 15%.

What does the source list for `O=C1CCC(Oc2ccc(C3CCN(CC(=O)N4CC5(C4)CN(c4ccc(-c6cnc7[nH]cc(C(=O)c8c(F)ccc(NS(=O)(=O)N9CCCC9)c8F)c7c6)cc4)C5)CC3)cc2)C(=O)N1` (stereo not shown) [Example A116, N-[3-[5-[4-[2-[2-[4-[4-(2,6-Dioxopiperidin-3-yl)oxyphenyl]piperidin-1-yl]acetyl]-2,6-diazaspiro[3.3]heptan-6-yl]phenyl]-1H-pyrrolo[2,3-b]pyridine-3-carbonyl]-2,4-difluorophenyl]pyrrolidine-1-sulfonamide]?
DC50: 26 nM; Emax: 8%

How did the DC50 turn out when `O=C(c1c(F)ccc(NS(=O)(=O)N2CCCC2)c1F)c1c[nH]c2ncc(-c3ccc(N4CC5(CN(C(=O)CN6CCC(c7ccc(NC89CC(C8)C(=O)NC9=O)cc7)CC6)C5)C4)cc3)cc12` [Example A117, N-[3-[5-[4-[2-[2-[4-[4-[(2,4-Dioxo-3-azabicyclo[3.1.1]heptan-1-yl)amino]phenyl]piperidin-1-yl]acetyl]-2,6-diazaspiro[3.3]heptan-6-yl]phenyl]-1H-pyrrolo[2,3-b]pyridine-3-carbonyl]-2,4-difluorophenyl]pyrrolidine-1-sulfonamide] was run?
The DC50 was 192 nM.

What about the Emax of the same compound?
Its Emax is 24%.

Which results are given for `O=C1CCC(c2ccc(C3CCN(CC(=O)N4CC5(C4)CN(c4ncc(-c6cnc7[nH]cc(C(=O)c8c(F)ccc(NS(=O)(=O)N9CCCC9)c8F)c7c6)cn4)C5)CC3)cc2)C(=O)N1` (stereo not shown) [Example A118, N-[3-[5-[2-[2-[2-[4-[4-(2,6-Dioxopiperidin-3-yl)phenyl]piperidin-1-yl]acetyl]-2,6-diazaspiro[3.3]heptan-6-yl]pyrimidin-5-yl]-1H-pyrrolo[2,3-b]pyridine-3-carbonyl]-2,4-difluorophenyl]pyrrolidine-1-sulfonamide]?
DC50: 29 nM; Emax: 11%

How did the DC50 turn out when `O=C1CCC(Oc2ccc(C3CCN(CC(=O)N4CC5(C4)CN(c4ncc(-c6cnc7[nH]cc(C(=O)c8c(F)ccc(NS(=O)(=O)N9CCCC9)c8F)c7c6)cn4)C5)CC3)cc2)C(=O)N1` (stereo not shown) [Example A119, N-[3-[5-[2-[2-[2-[4-[4-(2,6-Dioxopiperidin-3-yl)oxyphenyl]piperidin-1-yl]acetyl]-2,6-diazaspiro[3.3]heptan-6-yl]pyrimidin-5-yl]-1H-pyrrolo[2,3-b]pyridine-3-carbonyl]-2,4-difluorophenyl]pyrrolidine-1-sulfonamide] was run?
Its DC50 is 47 nM.

What about the Emax of the same compound?
Its Emax is 12%.
